These results are taken from ChEMBL document CHEMBL4257455, “Recent development of lipoxygenase inhibitors as anti-inflammatory agents” (Medchemcomm, 2018).

Assay [1] is described as follows: Inhibition of LOX (unknown origin). Also on record: species or system Homo sapiens.
In assay [2] the target is T1, Polyunsaturated fatty acid 5-lipoxygenase (Rattus norvegicus, UniProt P12527).
T1 sequence (P12527 whole entry): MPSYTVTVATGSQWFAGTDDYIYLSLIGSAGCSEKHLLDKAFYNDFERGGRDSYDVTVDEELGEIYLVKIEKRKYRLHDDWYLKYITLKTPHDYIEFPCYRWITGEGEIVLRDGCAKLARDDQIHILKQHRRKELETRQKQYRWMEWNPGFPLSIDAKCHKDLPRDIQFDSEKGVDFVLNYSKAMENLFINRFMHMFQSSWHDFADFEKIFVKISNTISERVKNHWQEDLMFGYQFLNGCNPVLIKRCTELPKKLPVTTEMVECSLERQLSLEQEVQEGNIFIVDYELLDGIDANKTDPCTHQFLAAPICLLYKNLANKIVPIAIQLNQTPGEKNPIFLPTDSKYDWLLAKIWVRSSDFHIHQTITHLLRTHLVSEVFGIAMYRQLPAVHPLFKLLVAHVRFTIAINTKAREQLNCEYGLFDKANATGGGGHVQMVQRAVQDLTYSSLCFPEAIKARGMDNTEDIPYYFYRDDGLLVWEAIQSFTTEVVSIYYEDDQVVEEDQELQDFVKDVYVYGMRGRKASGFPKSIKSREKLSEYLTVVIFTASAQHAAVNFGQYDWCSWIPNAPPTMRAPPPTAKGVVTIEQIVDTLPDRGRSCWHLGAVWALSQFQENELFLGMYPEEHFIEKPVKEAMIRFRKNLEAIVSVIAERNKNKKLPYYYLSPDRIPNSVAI
Kind of assay: Inhibition of rat 5-LOX expressed in Sf21 insect cells preincubated for 4 mins followed by AA substrate addition and measured after 4 mins by FOX assay.

The nature of assay [3]: Inhibition of soybean 15-LOX using linoleic acid as substrate preincubated for 15 mins followed by substrate addition and measured up to 6 mins by spectrophotometric analysis. Also on record: species or system Glycine max.
The nature of assay [4]: Inhibition of soybean 5LOX using linoleic acid as substrate preincubated for 5 mins followed by substrate addition and measured after 20 mins by spectrophotometric analysis. Also on record: species or system Glycine max.
The target in assay [5] is T2, Polyunsaturated fatty acid 5-lipoxygenase (Homo sapiens, UniProt P09917).
T2 sequence (P09917 whole entry): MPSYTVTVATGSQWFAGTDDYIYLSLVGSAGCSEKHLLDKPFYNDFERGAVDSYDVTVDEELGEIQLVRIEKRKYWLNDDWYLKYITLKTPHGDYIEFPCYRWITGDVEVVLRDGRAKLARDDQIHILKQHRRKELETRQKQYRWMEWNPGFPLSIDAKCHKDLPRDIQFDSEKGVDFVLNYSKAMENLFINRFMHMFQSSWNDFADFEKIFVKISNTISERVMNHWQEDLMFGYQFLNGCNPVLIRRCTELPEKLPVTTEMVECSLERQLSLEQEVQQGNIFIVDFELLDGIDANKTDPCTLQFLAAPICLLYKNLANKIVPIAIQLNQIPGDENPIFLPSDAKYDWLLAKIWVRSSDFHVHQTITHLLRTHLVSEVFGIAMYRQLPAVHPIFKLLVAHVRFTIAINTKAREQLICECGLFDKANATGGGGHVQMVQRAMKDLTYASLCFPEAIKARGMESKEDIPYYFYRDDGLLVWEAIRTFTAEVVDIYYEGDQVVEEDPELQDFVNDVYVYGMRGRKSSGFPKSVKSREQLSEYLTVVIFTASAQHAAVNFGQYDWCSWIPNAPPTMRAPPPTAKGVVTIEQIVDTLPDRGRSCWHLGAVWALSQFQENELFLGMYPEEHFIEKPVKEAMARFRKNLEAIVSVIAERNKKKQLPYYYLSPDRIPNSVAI
Kind of assay: Inhibition of 5-LOX (unknown origin).

For assay [6], the target named is T3, Arachidonate 5-lipoxygenase-activating protein (Homo sapiens, UniProt P20292).
T3 sequence (P20292 whole entry): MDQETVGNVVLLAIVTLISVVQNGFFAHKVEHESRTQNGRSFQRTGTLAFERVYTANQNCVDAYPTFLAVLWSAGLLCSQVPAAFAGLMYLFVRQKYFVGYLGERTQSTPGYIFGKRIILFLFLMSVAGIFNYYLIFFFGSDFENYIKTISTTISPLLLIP
Kind of assay: Inhibition of FLAP in human leukocytes assessed as decrease in ionophore A23187-induced LT biosynthesis after 10 mins. The format is cell-based.

In assay [7] the target is T4, Polyunsaturated fatty acid lipoxygenase ALOX12 (Homo sapiens, UniProt P18054).
T4 sequence (P18054 whole entry): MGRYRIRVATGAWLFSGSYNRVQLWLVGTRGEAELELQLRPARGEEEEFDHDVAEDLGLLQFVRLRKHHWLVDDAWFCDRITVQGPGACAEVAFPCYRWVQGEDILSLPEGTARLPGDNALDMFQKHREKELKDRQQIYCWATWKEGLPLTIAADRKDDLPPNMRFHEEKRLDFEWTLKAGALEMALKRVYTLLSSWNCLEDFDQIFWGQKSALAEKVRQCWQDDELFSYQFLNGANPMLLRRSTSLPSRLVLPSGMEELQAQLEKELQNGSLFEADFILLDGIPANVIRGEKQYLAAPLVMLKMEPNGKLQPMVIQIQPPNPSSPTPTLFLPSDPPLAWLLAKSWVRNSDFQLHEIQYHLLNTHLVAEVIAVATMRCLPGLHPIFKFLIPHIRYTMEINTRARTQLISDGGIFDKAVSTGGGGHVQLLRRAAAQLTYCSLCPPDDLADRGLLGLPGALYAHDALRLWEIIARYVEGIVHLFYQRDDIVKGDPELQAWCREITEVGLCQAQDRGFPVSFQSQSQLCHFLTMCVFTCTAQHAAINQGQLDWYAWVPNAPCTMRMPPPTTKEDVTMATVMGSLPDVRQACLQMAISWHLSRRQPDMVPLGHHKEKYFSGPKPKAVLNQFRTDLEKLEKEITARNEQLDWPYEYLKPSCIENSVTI
Kind of assay: Inhibition of human N-terminal His-tagged 12-LOX expressed in Escherichia coli(Rosetta) by rhodamine 123 dye-based fluorescence assay.

The target in assay [8] is T2, Polyunsaturated fatty acid 5-lipoxygenase. Kind of assay: Inhibition of human N-terminal His-tagged 5-LOX expressed in Escherichia coli(Rosetta) by rhodamine 123 dye-based fluorescence assay.
For a further assay, the system named is Mus musculus. As to the kind of experiment: Anti-inflammatory activity in mouse assessed as inhibition of xylene induced ear edema at 30 mg/kg relative to control. The format is functional. Also on record: scale not given: the % may be the effect or the level left.
Assay [9] concerns the target T5, Polyunsaturated fatty acid lipoxygenase ALOX15 (Homo sapiens) (UniProt P16050).
T5 sequence (whole entry): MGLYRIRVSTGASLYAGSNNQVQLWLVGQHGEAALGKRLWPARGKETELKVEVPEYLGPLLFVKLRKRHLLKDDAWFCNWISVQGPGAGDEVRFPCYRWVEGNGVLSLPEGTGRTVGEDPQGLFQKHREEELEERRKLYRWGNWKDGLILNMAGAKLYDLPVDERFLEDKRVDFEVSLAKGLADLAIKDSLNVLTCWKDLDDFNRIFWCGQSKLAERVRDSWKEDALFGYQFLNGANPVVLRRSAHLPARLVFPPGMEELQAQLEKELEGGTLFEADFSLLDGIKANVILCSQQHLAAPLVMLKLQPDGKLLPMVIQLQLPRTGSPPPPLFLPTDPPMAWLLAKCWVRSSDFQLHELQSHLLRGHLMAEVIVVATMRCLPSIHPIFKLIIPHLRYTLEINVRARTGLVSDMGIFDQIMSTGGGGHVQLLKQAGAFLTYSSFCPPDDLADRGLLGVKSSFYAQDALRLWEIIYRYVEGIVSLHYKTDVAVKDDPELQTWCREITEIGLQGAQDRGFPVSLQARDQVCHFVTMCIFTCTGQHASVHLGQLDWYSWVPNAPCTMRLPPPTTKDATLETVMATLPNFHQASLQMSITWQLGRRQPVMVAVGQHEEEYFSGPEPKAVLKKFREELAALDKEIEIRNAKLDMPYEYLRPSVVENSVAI
As to the kind of experiment: Inhibition of 15-LOX (unknown origin) at 12.7 uM relative to control.

Assay [10] deals with T6, Polyunsaturated fatty acid lipoxygenase ALOX15 (Homo sapiens, UniProt P16050).
T6 sequence (P16050 whole entry): T5 sequence (whole entry)
As to the kind of experiment: Inhibition of human N-terminal His-tagged 15-LOX expressed in Escherichia coli(Rosetta) by rhodamine 123 dye-based fluorescence assay.

For assay [11], the target named is T7, Seed linoleate 13S-lipoxygenase-1 (Glycine max, UniProt P08170).
T7 sequence (P08170 whole entry): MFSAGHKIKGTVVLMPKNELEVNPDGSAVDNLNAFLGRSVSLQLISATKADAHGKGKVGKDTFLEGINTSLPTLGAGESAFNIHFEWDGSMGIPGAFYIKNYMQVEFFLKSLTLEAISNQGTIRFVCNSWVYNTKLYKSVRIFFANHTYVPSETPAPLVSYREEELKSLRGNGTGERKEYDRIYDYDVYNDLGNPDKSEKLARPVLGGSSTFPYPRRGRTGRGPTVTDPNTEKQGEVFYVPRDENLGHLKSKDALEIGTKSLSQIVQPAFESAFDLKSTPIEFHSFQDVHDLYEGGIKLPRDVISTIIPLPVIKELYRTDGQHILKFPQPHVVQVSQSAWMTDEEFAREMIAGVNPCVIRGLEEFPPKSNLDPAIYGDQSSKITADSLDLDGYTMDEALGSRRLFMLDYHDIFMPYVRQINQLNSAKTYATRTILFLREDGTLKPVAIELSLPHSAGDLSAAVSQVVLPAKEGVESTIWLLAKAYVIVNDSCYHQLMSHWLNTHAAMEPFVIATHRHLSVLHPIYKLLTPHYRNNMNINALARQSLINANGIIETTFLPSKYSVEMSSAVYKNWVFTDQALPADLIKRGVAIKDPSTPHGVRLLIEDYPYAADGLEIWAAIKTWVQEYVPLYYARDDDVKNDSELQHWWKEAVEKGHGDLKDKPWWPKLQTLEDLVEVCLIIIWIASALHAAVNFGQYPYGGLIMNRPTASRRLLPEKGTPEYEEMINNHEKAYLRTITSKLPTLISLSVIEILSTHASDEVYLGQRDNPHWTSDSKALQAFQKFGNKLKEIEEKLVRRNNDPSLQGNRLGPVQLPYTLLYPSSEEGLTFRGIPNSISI
Kind of assay: Inhibition of soybean LOX-1 using linoleic acid as substrate preincubated for 120 secs with substrate followed by enzyme addition and measured every 30 secs for 7.5 mins by spectrophotometric analysis.

In assay [12] the target is T3, Arachidonate 5-lipoxygenase-activating protein. As to the kind of experiment: Inhibition of FLAP in human neutrophils assessed as decrease in LT biosynthesis preincubated for 15 mins followed by AA substrate addition by HPLC analysis.

On to `O=C(O)Cc1c[nH]c2ccccc12` [INDOLE-3-ACETIC ACID], for which, in [1], 43000 nM corresponded to half-maximal inhibition (IC50). In assay [1], `O=C(O)CCCc1c[nH]c2ccccc12` came in with an IC50 of 17800 nM. The compound `Cc1cc(Nc2nc(-c3ccc(Cl)cc3)cs2)cc(C)c1O` returned an IC50 in [2] of 127 nM. In the case of `CCCCC(=O)c1c(O)cc(O)c(C/C=C(\C)CCC=C(C)C)c1O`, the IC50 in assay [3] was 10300 nM. With `COc1ccc2nc(NCC(O)COc3ccc4c(C)cc(=O)oc4c3)sc2c1` (stereo not given), the IC50 in [4] came out at 2100 nM. Take `CS(=O)(=O)c1ccc(-n2nc(-c3ccc(-c4ccccc4)cc3)c3ccccc3c2=O)cc1`: the IC50 in assay [5] came to 6200 nM. For `CC(C)c1ccc2c(c1)c(SC(C)(C)C)c(CC(C)(C)C(=O)O)n2Cc1ccc(Cl)cc1`, the IC50 in assay [6] amounted to 102 nM. As for `CC(C)/C=C/c1c(O)cc(-c2cc3ccc(O)cc3o2)cc1O`, the 50% inhibitory concentration (IC50) in assay [7] was found to be 1300 nM; in [8] it was 1670 nM. In assay [1], `CS(=O)(=O)c1ccc(-c2nc(SCCN(O)C(N)=O)nn2-c2ccc(Br)cc2)cc1` had a half-maximal inhibitory concentration (IC50) of 850 nM. In the assay with Mus musculus, the Activity was determined as 54.1%.

As for `C/C(=C\COc1cc2oc(=O)ccc2cc1O)C/C=C/C(C)(C)O`, the inhibition in [9] was 34.8%. `Cc1cc(=O)oc2cc(OCC(O)CNc3nc4ccc(Cl)cc4s3)ccc12` (stereo not given) had an IC50 in assay [4] of 2800 nM. With `CC(C)=CCc1c(O)cc(-c2cc3ccc(O)cc3o2)cc1O` [MORACIN C], the 50% inhibitory concentration (IC50) in assay [7] turned out to be 210 nM; in [10], 1210 nM; in assay [8], 2350 nM. Regarding `O=C(Cc1c[nH]c2ccccc12)NN=C(c1ccccc1)c1ccccc1`, half-maximal inhibition in [1] (IC50) was put at 53600 nM. As to `CC[C@H](C)/C=C(C)/C=C/C1=C(Br)C2=CC(=O)C(C)(O)C(=O)C2=CO1` (stereo not given in full), 3200 nM corresponded to half-maximal inhibition in assay [11] (IC50). Turning to `Cc1noc(-c2ccc(OCc3ccc4ccccc4n3)cc2)c1-c1ccc(Cl)cc1`, in assay [12], the IC50 was 4400 nM. In the case of `Cc1ccc(-c2cc(C(F)(F)F)nn2-c2ccc(S(N)(=O)=O)cc2)cc1` [CELECOXIB], in the assay on Mus musculus, the Activity worked out at 46.7%.
